In PubChem BioAssay AID179 (DTP/NCI, 2004):
Several values for one entry are separate records, joined by “and”; a condition that tells them apart may be missing. Identical values can stand only once. Activity calls are given as the source filed them.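 The calls were made as follows: active = compounds giving half or more protection of infected cells from virus-caused growth loss, again on retest; inactive = the rest.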

System: CEM cells HIV-1 protection, formazan growth assay
Test: NCI AIDS Antiviral Assay
Details: for IC50: measured here: growth of uninfected CEM cells
How it was run: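 Screen of anti-HIV-1 activity in human CEM cells using a formazan-based growth measurement at five drug concentrations. Hits with 50% or greater protection were repeated, and confirmation required reproducible complete protection.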

SMILES | EC50 [µM] | IC50 | outcome
O=C(OCc1ccccc1)C1(N2CN(C3(C(=O)OCc4ccccc4)CCCC3)CN(C3(C(=O)OCc4ccccc4)CCCC3)C2)CCCC1 | > 200 | 35.5 µM | –
Cc1cc(C)nc(NC(=S)Nc2ccc([N+](=O)[O-])cc2)c1 | > 200 | > 200 µM | –
CN(COC(=O)C(C)(C)C)c1nc(N(C)COC(=O)C(C)(C)C)nc(N(C)COC(=O)C(C)(C)C)n1 | > 100 | 18.6 µM | –
C=C1[C@H]2C[C@H]3[C@@H]4N5C[C@]6(C)CCCC47C6[C@@]5(O)CC3([C@@H]1O)[C@H]7[C@H]2O | – | – | inactive
Cn1cnc2c(sc3nc4ccccc4n32)c1=N | > 200 | > 200 µM | –
COC1/C=C\OC2(C)Oc3c(C)c(O)c4c(O)c(c(/C=N\OCCO)c(O)c4c3C2=O)NC(=O)/C(C)=C\C=C/C(C)C(O)C(C)C(O)C(C)C(OC(C)=O)C1C (centres undefined) | 16.2 | 126 µM | –
On1c(-c2ccccc2)c(-c2ccccc2N2CCCC2)c2ccccc21 | – | – | inactive
COC(=O)c1cc(C(CCl)c2cc(C(=O)OC)c(OC)c(Br)c2C)c(C)c(Br)c1OC | > 200 | 8.71 µM | –
O=C(OCC1OC(n2nc(Cn3nnc(-c4cccnc4)n3)n(-c3cccc4ccccc34)c2=S)C(OC(=O)c2ccccc2)C1OC(=O)c1ccccc1)c1ccccc1 (centres undefined) | > 100 | > 100 µM | –
COc1cc2c(cc1O)[C@H](C)C(c1ccc(OC)c(OC)c1)O2 (some centres undefined) | > 214 | 10.5 µM | –
COc1ccc(CN2COc3c(ccc4ccccc34)C2)cc1 | > 200 | 10.2 µM | –
O=CC1=CCC2c3[nH]c4ccccc4c3CCN2C1 (centres undefined) | > 372 | 41.7 µM | –
N#Cc1c(-c2ccccc2)c(C#N)c(=O)n(C2OC(CO)C(O)C(O)C2O)c1S (centres undefined) | > 200 | > 200 µM and 141 µM | –
O=S(=O)(O)c1ccc(Nc2ccnc3ccccc23)cc1 | > 200 | > 200 µM | –
COC1[C@]2(O)C(=O)N3/C=C\C(C)(C)c4[nH]c5ccccc5c4/C=C\3C(=O)N2C23C(C)C(C)(C)N2c2ccccc2[C@]13O (some centres undefined) | – | – | inactive
CCOC(=O)c1c(N2CCOCC2)[nH]c(=O)c(C(c2cccs2)c2c(O)c(C(=O)OCC)c(N3CCOCC3)[nH]c2=O)c1O | > 200 | > 200 µM | –
S=C(NC1CCCCC1)SSSC(=S)NC1CCCCC1 | > 200 | 27.5 µM | –
CC(C)C1=Cc2ccc3c(c2C(=O)C1=O)CCCC3(C)C | > 18.6 | 2.95 µM | –
COc1cc2cc3c4c(cc(OC)c(OC)c4c2cc1OC)CCN3C(=O)CCC(=O)O | > 200 | 123 µM | –
Oc1cc(O)c2c(-c3c(O)c(-c4ccc(O)c(O)c4)[o+]c4cc(O)cc(O)c34)c(O)c(-c3ccc(O)c(O)c3)[o+]c2c1 | – | – | inactive
CCC(Cc1ccccc1)C1=NC(C)(C)CC(C)O1 (centres undefined) | > 200 | 79.4 µM | –

SMILES | EC50 [µM] | IC50 | outcome
O=C(CN1CCOCC1)CC(O)(C(F)(F)F)C(F)(F)F | > 200 | 95.5 µM | –
N#Cc1c(N)c2c(c(-c3ccccc3)c1-c1ccccc1)C(=O)N(O)C2=O | > 200 | 44.7 µM | –
Cc1ccc2ccc3ccc(C)nc3c2n1 | > 12 | 0.24 µM | –
C[C@@H](c1ccccc1)N1CN(C(=O)OCc2ccccc2)C(C)(C)CC1=O | > 200 | 191 µM | –
CCN(CC)CCNC(=O)c1ccc(C)c(OCc2ccccc2)c1[N+](=O)[O-] | > 200 | 33.9 µM | –
CCOC(=O)CC[C@H](NC(=O)c1nc[nH]c1[N+](=O)[O-])C(=O)OCC | > 200 | > 200 µM | –
COc1ccccc1C1c2cc3c(cc2OC(O)(CO)C1C(=O)O)OCO3 (centres undefined) (tested in a mixture with another compound) | – | – | inactive
Cc1cn2c(C)csc2c1P(=O)(OC(C)C)OC(C)C | > 200 | 158 µM | –
CCC[CH2][Sn]([CH2]CCC)([O]C(=O)c1cccc(F)c1F)[O][Sn]([CH2]CCC)([CH2]CCC)[O]C(=O)c1cccc(F)c1F | > 6.61 | 4.79 µM | –
Oc1ccccc1C=Nc1ccc(SSc2ccc(N=Cc3ccccc3O)cc2)cc1 | > 200 | 27.5 µM | –
COc1nc(NC2OC(COC(C)=O)C(OC(C)=O)C(OC(C)=O)C2OC(C)=O)c2c(n1)OCC2=O (centres undefined) | – | – | inactive
CC(NC(=O)OCc1ccccc1)NC(=O)OC(C)(C)C (centres undefined) | > 200 | 102 µM | –
CCOC(=O)/C(=C\c1ccc([N+](=O)[O-])cc1)[Se]c1ccccc1 | > 69.2 | 26.9 µM | –
CC(CCc1nc2ccccc2o1)C1CCC2C3CC[C@@H]4C[C@H](O)CC[C@]4(C)C3CC[C@]12C (some centres undefined) | > 50.1 | 17.4 µM | –
O=C(O)C1=C(C(=O)O)N(c2ccncc2)C(c2ccco2)=CC1c1ccccc1[N+](=O)[O-] (centres undefined) | > 200 | 2.24 µM | –
O=C1CCC(=O)c2cc(Br)ccc2N1 | > 141 | > 141 µM | –
C[N+](C)(C)CC(=O)N/N=C(\C(=O)Nc1ccc(Cl)cc1)C1C(=O)N(c2ccccc2)N=C1N (centres undefined) | > 17.8 | > 17.8 µM | –
O=C1c2cc(Oc3ccccc3)c(S(=O)(=O)O)c(S(=O)(=O)O)c2C(=O)c2c(O)ccc(O)c21 | > 200 | 72.4 µM | –
CC1C(N2CCCCC2)N(C(=O)c2ccccc2)SC12c1ccccc1-c1ccccc12 (centres undefined) | > 42.7 | > 42.7 µM | –
Cc1csc2c(=O)n(C3OC(CO)C(O)C3O)c(=O)[nH]c12 (centres undefined) | > 200 | > 200 µM | –
ClC(Cl)=CC(Cl)(Cl)C(Cl)(Cl)C(Cl)(Cl)Cl | > 200 | 5.5 µM | –

SMILES | EC50 [µM] | IC50 | outcome
O=c1onc(Nc2ccccc2)n1-c1ccccc1 | > 200 | 129 µM | –
COc1cc2c(c(OC)c1OC)C(=O)CC2N (centres undefined) | > 200 | > 200 µM | –
O=S1C=C(C2=COCCC2)OC1 (centres undefined) | > 195 | > 195 µM | –
CCOC(=O)c1cc2nc(NC(=O)c3ccccc3)sc2n1C | > 200 | > 200 µM | –
CSc1nc2c(c(N(C)C)n1)C=Nn1c(nc3ccccc31)S2 | 9.77 | 97.7 µM | –
COc1cccc(-c2cc(C(=O)Nc3ccc(Cl)cc3)nc(N)n2)c1 | > 72.4 | 52.5 µM | –
C/C(=N\NS(=O)(=O)c1ccc(C)cc1)c1ccc[n+]([O-])n1 | – | – | inactive
COc1cc(O)c2c(c1)O[C@H](C)C(C)C2=O (some centres undefined) | > 200 | > 200 µM | –
CC1(C)Oc2cc3oc(=O)ccc3c3c2C2C1CCC(C)(O3)C2O (centres undefined) | > 759 | 316 µM | –
CCCCOP(=O)(OCCCC)/C(C#N)=C/c1ccc(C)o1 | > 200 | 102 µM | –
CCOc1ccccc1/C=C(/C#N)C(N)=O | > 200 | 117 µM | –
CC1=NN(c2nc(N)nc(NS(=O)(=O)c3cc(C)c(Cl)cc3S)n2)C(C)(C)C1 | 105 | 479 µM | –
CN1CC(Br)(Br)C(=O)N(C)C1=O | > 200 | 3.24 µM | –
O=C1CCCC2COc3ccc(O)c1c32 (centres undefined) | – | – | inactive
CN1C(=O)NC2(C1=O)C(=O)N(C)C(=O)N2C (centres undefined) | > 1100 | > 1100 µM | –
O=C1c2ccccc2C(=O)C1(Br)C(Br)c1ccccc1 (centres undefined) | > 200 | 2.57 µM | –
O=P1(Oc2ccc(Cl)cc2)OCCS1 (centres undefined) | > 200 | > 200 µM | –
COc1ccc(-c2cc(=O)c3c(C)cc(O)cc3o2)cc1OC | > 200 | 174 µM | –
COc1cc(Nc2cnc3ccc(C(F)(F)F)cc3n2)cc(OC)c1OC | > 35.5 | 6.92 µM | –
